Source: ChEMBL document CHEMBL1127588, “A structure-activity relationship study of benzylic modifications of 4-[1-(1-naphthyl)ethyl]-1H-imidazoles on alpha 1- and alpha 2-adrenergic receptors” (J Med Chem, 1994)

How the values were obtained:
[1] = target: T1, Adrenergic receptor alpha-2 (Homo sapiens, UniProt P08913+P18825+P18089); experiment: Tested for its inhibitory activity against alpha-2 adrenoceptor in guinea pig ileum; assay type: tissue-based, Cavia porcellus; conditions: target entry is the homologue from another species
T1 sequence (P08913 whole entry): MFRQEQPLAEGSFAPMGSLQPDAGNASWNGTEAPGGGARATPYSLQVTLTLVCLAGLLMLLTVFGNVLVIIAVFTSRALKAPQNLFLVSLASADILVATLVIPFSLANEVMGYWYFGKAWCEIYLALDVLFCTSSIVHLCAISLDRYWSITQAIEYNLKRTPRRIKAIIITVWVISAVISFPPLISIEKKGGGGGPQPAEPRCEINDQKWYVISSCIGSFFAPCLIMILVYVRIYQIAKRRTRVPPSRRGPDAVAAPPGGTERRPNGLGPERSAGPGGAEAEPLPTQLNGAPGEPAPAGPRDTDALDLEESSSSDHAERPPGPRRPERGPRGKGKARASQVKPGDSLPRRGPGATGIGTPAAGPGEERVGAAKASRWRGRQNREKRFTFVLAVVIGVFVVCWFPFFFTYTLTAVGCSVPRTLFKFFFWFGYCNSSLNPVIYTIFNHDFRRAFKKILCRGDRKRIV
T1 sequence (P18825 whole entry): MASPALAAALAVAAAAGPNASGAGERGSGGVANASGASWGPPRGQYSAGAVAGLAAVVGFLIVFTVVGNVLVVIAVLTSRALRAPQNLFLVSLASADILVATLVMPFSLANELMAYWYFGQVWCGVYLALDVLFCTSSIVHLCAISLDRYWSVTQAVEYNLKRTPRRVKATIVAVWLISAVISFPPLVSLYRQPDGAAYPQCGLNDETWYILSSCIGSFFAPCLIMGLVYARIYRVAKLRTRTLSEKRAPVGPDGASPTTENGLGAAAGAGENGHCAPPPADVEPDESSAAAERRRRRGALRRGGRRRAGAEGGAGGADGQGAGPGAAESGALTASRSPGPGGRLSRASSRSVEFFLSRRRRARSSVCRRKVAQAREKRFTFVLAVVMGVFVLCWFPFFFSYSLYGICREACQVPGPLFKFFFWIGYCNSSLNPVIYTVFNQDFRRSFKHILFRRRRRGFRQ
T1 sequence (P18089 whole entry): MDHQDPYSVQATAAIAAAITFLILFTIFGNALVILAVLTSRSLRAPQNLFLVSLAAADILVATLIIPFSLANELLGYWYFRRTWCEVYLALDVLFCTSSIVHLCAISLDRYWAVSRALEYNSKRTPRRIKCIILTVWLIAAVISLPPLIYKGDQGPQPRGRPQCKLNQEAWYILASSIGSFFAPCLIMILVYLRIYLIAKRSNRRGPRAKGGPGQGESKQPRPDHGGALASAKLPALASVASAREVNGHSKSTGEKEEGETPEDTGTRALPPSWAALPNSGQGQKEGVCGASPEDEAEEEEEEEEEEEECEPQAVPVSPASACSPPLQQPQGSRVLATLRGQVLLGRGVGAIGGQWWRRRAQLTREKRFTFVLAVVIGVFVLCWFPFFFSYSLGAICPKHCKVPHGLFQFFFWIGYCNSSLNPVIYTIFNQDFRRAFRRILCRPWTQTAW

[2] = target: T2, Adrenergic receptor alpha-1 (Rattus norvegicus, UniProt P15823+P23944+P43140); experiment: Tested for its binding affinity against alpha-1 receptor in rat brain membrane; assay type: cell membranes
T2 sequence (P15823 whole entry): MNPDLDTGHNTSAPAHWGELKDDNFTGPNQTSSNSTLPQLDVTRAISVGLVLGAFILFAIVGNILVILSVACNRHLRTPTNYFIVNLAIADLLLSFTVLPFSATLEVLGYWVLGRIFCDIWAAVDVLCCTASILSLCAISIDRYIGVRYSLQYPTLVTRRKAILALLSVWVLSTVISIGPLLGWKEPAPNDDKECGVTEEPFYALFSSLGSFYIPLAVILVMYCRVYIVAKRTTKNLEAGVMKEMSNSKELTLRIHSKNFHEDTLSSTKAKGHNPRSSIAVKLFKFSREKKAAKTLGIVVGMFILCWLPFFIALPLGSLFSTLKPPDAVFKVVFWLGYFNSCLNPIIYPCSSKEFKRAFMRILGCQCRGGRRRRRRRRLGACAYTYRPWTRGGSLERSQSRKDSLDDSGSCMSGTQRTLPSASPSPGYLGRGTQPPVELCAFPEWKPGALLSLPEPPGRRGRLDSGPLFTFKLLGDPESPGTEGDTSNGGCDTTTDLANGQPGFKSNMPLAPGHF
T2 sequence (P23944 whole entry): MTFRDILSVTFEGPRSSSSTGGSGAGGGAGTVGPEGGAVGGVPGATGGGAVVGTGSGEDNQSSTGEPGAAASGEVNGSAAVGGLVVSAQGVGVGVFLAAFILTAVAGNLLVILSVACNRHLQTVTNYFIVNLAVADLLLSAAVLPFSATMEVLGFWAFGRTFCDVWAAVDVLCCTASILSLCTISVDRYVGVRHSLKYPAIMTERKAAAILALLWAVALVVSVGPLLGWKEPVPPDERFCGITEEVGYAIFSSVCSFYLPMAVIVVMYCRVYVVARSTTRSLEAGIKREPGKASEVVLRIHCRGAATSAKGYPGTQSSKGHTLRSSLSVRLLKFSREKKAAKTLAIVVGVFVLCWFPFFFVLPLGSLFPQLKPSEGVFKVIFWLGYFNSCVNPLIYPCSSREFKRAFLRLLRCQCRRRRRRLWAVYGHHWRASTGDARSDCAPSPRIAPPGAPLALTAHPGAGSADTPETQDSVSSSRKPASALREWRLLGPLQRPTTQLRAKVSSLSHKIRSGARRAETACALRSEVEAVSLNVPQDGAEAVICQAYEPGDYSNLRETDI
T2 sequence (P43140 whole entry): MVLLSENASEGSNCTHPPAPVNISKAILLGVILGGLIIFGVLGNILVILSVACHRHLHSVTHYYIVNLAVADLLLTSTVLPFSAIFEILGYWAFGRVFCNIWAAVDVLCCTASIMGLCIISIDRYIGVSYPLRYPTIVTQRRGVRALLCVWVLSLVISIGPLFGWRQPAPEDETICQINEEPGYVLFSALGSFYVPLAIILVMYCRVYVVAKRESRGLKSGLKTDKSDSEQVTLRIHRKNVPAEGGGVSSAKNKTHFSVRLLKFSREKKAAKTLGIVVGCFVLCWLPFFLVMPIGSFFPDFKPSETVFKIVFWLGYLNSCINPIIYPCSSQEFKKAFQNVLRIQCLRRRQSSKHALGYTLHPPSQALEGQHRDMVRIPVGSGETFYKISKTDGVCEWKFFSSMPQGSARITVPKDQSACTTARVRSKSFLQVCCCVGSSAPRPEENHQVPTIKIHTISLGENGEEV

[3] = Ratio between IC50 values of alpha 1 and alpha 2 receptors
[4] = target: Adrenergic receptor alpha (Rattus norvegicus) (UniProt P15823+P23944+P43140+P22086+P19328+P22909); experiment: Ratio between EC50 values of alpha 1 and alpha 2 receptors; assay type: protein assay

| SMILES | EC50 [1] [nM] | Ki [2] [nM] | Ratio [3] | Ratio [4] |
| --- | --- | --- | --- | --- |
| CC(c1c[nH]cn1)c1cccc2ccccc12 (stereo in doubt; 2) | 9 | 310 |  |  |
| Cc1cccc(C(C)c2c[nH]cn2)c1C (configuration not stated) [MEDETOMIDINE] |  | 1102 |  |  |
| CC(c1c[nH]cn1)c1cccc2ccccc12 (stereo in doubt; S-(+)-2) | 11 | 461 |  |  |
| Cl.c1ccc2c(Cc3c[nH]cn3)cccc2c1 | 18 | 188 | 2.7 | 117 |
| Cl.OC(c1c[nH]cn1)c1cccc2ccccc12 (configuration not stated) | 375 | 9255 | 1.05 | 33.8 |
| CC(c1c[nH]cn1)c1cccc2ccccc12 (stereo in doubt; S-(-)-2) |  | 536 |  |  |
| COC(c1c[nH]cn1)c1cccc2ccccc12.Cl (configuration not stated) | 32992 | > 50000 | > 5.8 |  |
